US20240391928A1, “COMPOSITIONS FOR THE TREATMENT OF FOOD AND CHEMICAL ADDICTION AND METHODS OF MAKING AND USING SAME” (Duke University, priority 2021, published 2024)

Tests used:
Assay type in all cases: cell-based
GHSR1a^N305A = target: T1, GHSR1a^N305A (Homo sapiens, UniProt Q92847, N305A); experiment: iCa2+ at N305A mutant
T1 construct: expressed in transfected cells; host or cells: HEK293/T
Method: (§1) For experiments with WT and Gt KO HEK293/S cells, […] of hGHSR1a^WT, 10 μg of miAEQ, and 2.5 μg of pcDNA3.1 was transiently transfected into 10 cm dishes and incubated overnight. […] Twenty-four hours later, experiments proceeded in accordance with the procedures described above. To control for any possible kinetic differences in genetically modified cell lines or GHSR1a variants, the average ligand-induced response over 10 seconds was calculated, then normalized by dividing the L-miAeq by the L-miAeq plus the Lysis-miAeq and normalized to the appropriate control/reference condition.

hGHSR1a^A204E = hGHSR1a^A204E (Homo sapiens, UniProt Q92847, A204E); experiment: iCa2+ at A204E variant; parameters: expressed in transfected cells; host or cells: HEK293/T, transient
hGHSR1a^A204E, sequence (Q92847 whole entry A204E): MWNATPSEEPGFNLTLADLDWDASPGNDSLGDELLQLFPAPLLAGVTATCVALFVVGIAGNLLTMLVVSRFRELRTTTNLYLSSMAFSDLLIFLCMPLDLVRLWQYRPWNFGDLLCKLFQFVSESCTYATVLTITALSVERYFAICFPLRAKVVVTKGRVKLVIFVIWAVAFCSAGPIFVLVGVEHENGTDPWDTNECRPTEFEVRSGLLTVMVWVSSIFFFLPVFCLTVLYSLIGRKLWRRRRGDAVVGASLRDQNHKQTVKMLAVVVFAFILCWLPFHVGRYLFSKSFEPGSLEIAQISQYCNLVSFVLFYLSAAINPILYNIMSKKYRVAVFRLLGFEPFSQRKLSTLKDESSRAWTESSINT
Method: as §1

human GHSR1a^WT (Gαq) = human GHSR1a^WT (Gαq) (Homo sapiens, UniProt Q92847); experiment: NanoBiT Gαq dissociation/activation; parameters: HEK293/T (transient); HEK293S Gαq knockout (transient, NanoBiT Gαq)
human GHSR1a^WT (Gαq), sequence (Q92847 whole entry): as the sequence (Q92847 whole entry A204E) above, with E204A counted along it

hGHSR1a^WT-RLucII = target: T2, hGHSR1a^WT-RLucII (Homo sapiens, UniProt Q92847); experiment: Bystander BRET internalization (MyrPalm-Venus); details: over 60 minutes
T2 construct: expressed in transfected cells; host or cells: HEK293/T, transient
T2 sequence (Q92847 whole entry): as the sequence (Q92847 whole entry A204E) above, with E204A counted along it
Method: Bystander BRET (bBRET). hGHSR1a^WT-RLucII and plasma membrane marker, MyrPalm^mVenus, or the early endosomal marker, 2×-FYVE^mVenus, was transiently co-transfected in HEK293/T cells at a ratio of 1:5 or 1:12.5, respectively. […] Plates were then read by a Mithras 940 plate reader every 5 minutes over 1 hour (MyrPalm^mVenus) or 2 hours (2×FYVE^mVenus) to determine a BRET ratios. To generate CR curves, the average net BRET over 60 minutes post-treatment was used.

hGHSR1a^WT [1] = target: T3, hGHSR1a^WT (Homo sapiens, UniProt Q92847); experiment: Gαq-dependent intracellular Ca2+ mobilization (iCa2+, miAeq); parameters: HEK293/T (transient); HEK293S Gαq knockout (transient, NanoBiT Gαq)
T3 sequence (Q92847 whole entry): as the sequence (Q92847 whole entry A204E) above, with E204A counted along it
Method: Gαq-Dependent Intracellular Ca^2+ Mobilization. […] Cells were split into and seeded into 10 cm dishes without antibiotic selection and grown to confluency overnight. The next morning, cells were serum starved in 10 mL of clear opti-MEM (supplemented with L-glutamine and HEPES; Gibco, Waltham, MA) for 3-4 hours in a 37° C. incubator with 5% CO2. Then, 25 μL of coelenterazine H (NanoLight Technology, Pinetop, AZ) was added to each 10 mL dish and incubated for another 1-2 hours. For antagonist assays, test compounds were either added directly to the media in 10 cm dishes, or cells were collected by gentle washing/trituration and plated onto white, clear-bottomed 96-well plates for 30 minutes—1 hour. Once the coelenterazine H (or antagonist) incubation was complete, cells were harvested from the 10 cm dish by gentle washing/trituration and collected in a 15 mL conical tube. Cell suspensions were then immediately subjected to assay by injecting cells onto a white, clear-bottomed 96-well plate containing 2× test compounds. Luminescence was read without delay and for 10 seconds per well. To control for cell number variability, cells were lysed in 2× lysis buffer (100 mM CaCl2+0.2% Triton-X) immediately following the assay. The max ligand-induced response (Ca^2+ mobilization: net-miAeq) over 10 seconds was normalized by dividing the ligand-induced luminescence counts (L-miAeq) by the ligand-induced luminescence counts (L-MiAeq) plus the luminescence measured upon cell lysis (Lysis-miAeq). Relative, lysis-normalized data were then normalized to the appropriate control/reference condition.
as §1

hGHSR1a^WT [2] = target: T3, hGHSR1a^WT; experiment: SRF-RE transcriptional activity; parameters: expressed in transfected cells; HEK293/S Gαq/11 KO and parental WT (iCa2+)
Method: The next morning, media was removed and cells were serum starved with 90 μL of opti-MEM (containing no serum) for 2 hours at 37° C. Cells were then stimulated with 10× test compounds (diluted in serum-free opti-MEM) for 5 hours at 37° C. in a humidified incubator. Cells were then lysed in 20 μL of 1× passive lysis buffer (Promega) for 10 minutes on a shaker (RT). To measure luminescence, 40 μL of luciferin (in HBSS supplemented with 20 mM HEPES) was injected into in each well and immediately read by a Mithras 940 plate reader for 10 seconds.

hGHSR1a^WT [3] = target: T3, hGHSR1a^WT; experiment: Fixed-cell ELISA GHSR1a internalization; parameters: expressed in transfected cells; HEK293/S Gαq/11 KO and parental WT (iCa2+); details: 45 minutes at 37° C.
Method: Chemiluminescent Fixed-Cell ELISA. […] The next morning, media was removed and cells were serum starved with 90 μL of opti-MEM (containing no serum) for 2-3 hours at 37° C. Cells were then stimulated with 10× test compounds (diluted in serum-free opti-MEM) for 45 minutes at 37° C. in a humidified incubator. After 45 minutes, cells were fixed with 4% paraformaldehyde for 15 minutes (RT). Fixed cells were then washed three times with PBS (pH 7.4, Gibco) and blocked with fish gelatin in TBS (Rockland, Gilbertsville, PA) for 45 minutes. Cells were then incubated with a rabbit, horseradish peroxidase (HRP)-conjugated anti-HA antibody (1:2, 500; Novus Biologicals, Littleton, CO) for 1 hour (RT). […] The average luminescence was used and the data for each ligand were normalized its corresponding vehicle treatment conditions.

hGHSR1a^D99A = target: T4, hGHSR1a^D99A (Homo sapiens, UniProt Q92847, D99A); experiment: Gαq dissociation (TRUPATH) and iCa2+ at D99A mutant; details: surface expression reduced markedly
T4 construct: expressed in transfected cells; host or cells: HEK293/T, transient
T4 sequence (Q92847 whole entry D99A): as the sequence (Q92847 whole entry A204E) above, with D99A, E204A counted along it
Method: as §1

T1 sequence (Q92847 whole entry N305A): as the sequence (Q92847 whole entry A204E) above, with E204A, N305A counted along it

SMILES: COc1ccc(C(=O)c2c(C(=O)NCCCN(C)C)oc3ccc(Cl)cc3c2=O)cc1OC [Example N8279, 6-Chloro-3-(3,4-dimethoxybenzoyl)-N-(3-(dimethylamino)propyl)-4-oxo-4H-chromene-2-carboxamide]
- iCa2+ potency reduction at GHSR1a^N305A (GHSR1a^N305A): 6.5 fold
- iCa2+ efficacy at GHSR1a^A204E in words (hGHSR1a^A204E): full agonism was retained
- iCa2+ potency reduction at GHSR1a^A204E vs WT (hGHSR1a^A204E): 6.5 fold
- Gαq activation Emax (NanoBiT) (human GHSR1a^WT (Gαq)): 118.3±9.8
- internalization efficacy attenuation relative to ghrelin (bBRET MyrPalm) (hGHSR1a^WT-RLucII): ~20%
- internalization potency reduction relative to ghrelin (bBRET MyrPalm) (hGHSR1a^WT-RLucII): 32 fold
- iCa2+ EC50, fold more potent than own GHSR1a binding IC50 (hGHSR1a^WT [1]): 41 fold
- iCa2+ potency, fold less potent than L585 (hGHSR1a^WT [1]): 3.4 fold
- iCa2+ potency, fold less potent than MK-0677 (hGHSR1a^WT [1]): 5.3 fold
- iCa2+ potency, fold more potent than ghrelin (hGHSR1a^WT [1]): 8.9 fold
- increase in ghrelin's iCa2+ potency by N8279 (hGHSR1a^WT [1]; N8279 10 μM, concomitant): ~3 fold
- modulation of ghrelin-induced iCa2+ in words (hGHSR1a^WT [1]; concomitant N8279): weak ago-PAM activity
- iCa2+ efficacy in words (hGHSR1a^WT [1]; relative to ghrelin): full agonist
- SRF-RE potency reduction relative to L585 (hGHSR1a^WT [2]): ~10 fold
- SRF-RE potency reduction relative to ghrelin (hGHSR1a^WT [2]): ~15 fold
- SRF-RE transcription efficacy in words (hGHSR1a^WT [2]): full agonist
- internalization efficacy reduction relative to ghrelin (ELISA) (hGHSR1a^WT [3]): ~30%
- internalization potency reduction relative to ghrelin (ELISA) (hGHSR1a^WT [3]): 24 fold
- signaling at GHSR1a^D99A in words (hGHSR1a^D99A): abolished
